Measured values taken from patent US12234220B2, “Immunomodulatory compounds” (DANA-FARBER CANCER INSTITUTE, INC., priority 2018, dated 2025).
Like-named read-outs stand apart in the source and are kept apart here.

Target: DDB1AB-CRBN (Homo sapiens, UniProt Q96SW2)
Experiment: Lenalidomide displacement assay (Atto565-Lenalidomide fluorescence polarization)
Format: binding
Details: for Ki: calculated from IC50 with probe Kd of 40 nM, competitive model, read-out: CRBN Binding Ki; for binding affinity with CRBN, in words: fluorescence polarization assay, compared to lenalidomide control, FIG. 1A
Protocol: Compound titrations were incubated for 60 min at RT. The change in fluorescence polarization was monitored using a PHERAstar® FS microplate reader (BMG Labtech) for 1 h in 120 s cycles.

[1] = Table 1, n=2, 10 nM Atto565-Lenalidomide probe, 100 nM DDB1AB-CRBN, read-out: CRBN Binding IC50
[2] = Table 1, n=2, 10 nM Atto565-Lenalidomide probe, 100 nM DDB1AB-CRBN
[3] = refers to Tables 1 and 2, FIG. 1A/1B, read-out: IC50

DDB1AB-CRBN, sequence (Q96SW2 whole entry): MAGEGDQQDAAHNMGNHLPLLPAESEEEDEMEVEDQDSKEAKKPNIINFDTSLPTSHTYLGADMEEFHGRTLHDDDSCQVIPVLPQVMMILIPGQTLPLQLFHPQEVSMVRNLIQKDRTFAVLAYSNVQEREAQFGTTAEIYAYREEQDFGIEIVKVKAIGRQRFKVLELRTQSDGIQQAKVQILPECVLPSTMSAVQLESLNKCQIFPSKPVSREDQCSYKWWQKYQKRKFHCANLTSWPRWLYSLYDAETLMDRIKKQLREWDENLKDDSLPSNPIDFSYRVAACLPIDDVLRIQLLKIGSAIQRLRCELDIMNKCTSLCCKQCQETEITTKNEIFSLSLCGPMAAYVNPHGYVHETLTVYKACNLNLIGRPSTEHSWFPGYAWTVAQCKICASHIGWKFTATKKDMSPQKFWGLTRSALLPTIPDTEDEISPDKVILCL

Structure (SMILES) | Ki (Table 1) | IC50 [1] | also measured
Nc1cccc(C(=O)NC2CCC(=O)NC2=O)n1 (stereo not drawn) [Compound 3, 6-amino-N-(2,6-dioxopiperidin-3-yl)picolinamide] |  |  | CRBN Binding, probe displacement at single concentration (at 100 μM): 30% at 100 μM; binding affinity with CRBN, in words: moderate binding affinity
O=C1CCC(NC(=O)c2cc(Cl)ccn2)C(=O)N1 (stereo not drawn) [Compound 4, 4-chloro-N-(2,6-dioxopiperidin-3-yl)picolinamide] |  |  | CRBN Binding, probe displacement at single concentration (at 100 μM): 30% at 100 μM; binding affinity with CRBN, in words: moderate binding affinity
O=C1CCC(NC(=O)c2ccnc(NCc3ccccc3)n2)C(=O)N1 (stereo not drawn) [Compound 5, 2-(benzylamino)-N-(2,6-dioxopiperidin-3-yl)pyrimidine-4-carboxamide] | 32.5 µM | 113 µM | binding affinity with CRBN, in words: moderate binding affinity
COc1cccc(C(=O)NC2CCC(=O)NC2=O)n1 (stereo not drawn) [Compound 6, N-(2,6-dioxopiperidin-3-yl)-6-methoxypicolinamide] |  |  | CRBN Binding IC50 [2]: Inactive
O=C1CCC(NC(=O)c2ccnc(OCc3ccccc3)n2)C(=O)N1 (stereo not drawn) [Compound 7, 2-(benzyloxy)-N-(2,6-dioxopiperidin-3-yl)pyrimidine-4-carboxamide] | 8.3 µM | 29 µM | 
O=C1CCC(NC(=O)c2ccc(OCc3ccc(CN4CCOCC4)cc3)cn2)C(=O)N1 (stereo not drawn) [Compound 11, N-(2,6-dioxopiperidin-3-yl)-5-((4-(morpholinomethyl)benzyl)oxy)picolinamide] |  |  | CRBN Binding, probe displacement at single concentration (at 100 μM): 50% at 100 μM
O=C1CCC(NC(=O)c2ccc[nH]c2=O)C(=O)N1 (stereo not drawn) [Compound 19, N-(2,6-dioxopiperidin-3-yl)-2-oxo-1,2-dihydropyridine-3-carboxamide] | 15 µM | 53 µM | 
Cn1cccc(C(=O)NC2CCC(=O)NC2=O)c1=O (stereo not drawn) [Compound 20, N-(2,6-dioxopiperidin-3-yl)-1-methyl-2-oxo-1,2-dihydropyridine-3-carboxamide] | 66 µM | 231 µM | 
O=C1CCC(NC(=O)c2cccn(-c3ccccc3)c2=O)C(=O)N1 (stereo not drawn) [Compound 21, N-(2,6-dioxopiperidin-3-yl)-2-oxo-1-phenyl-1,2-dihydropyridine-3-carboxamide] | 20.6 µM | 72 µM | 
O=C1CCC(NC(=O)c2cccn(Cc3ccccc3)c2=O)C(=O)N1 (stereo not drawn) [Compound 22, 1-Benzyl-N-(2,6-dioxopiperidin-3-yl)-2-oxo-1,2-dihydropyridine-3-carboxamide] | 15 µM | 53 µM | 
O=C1CCC(NC(=O)c2cccc3c(O)ccnc23)C(=O)N1 (stereo not drawn) [Compound 26, N-(2,6-dioxopiperidin-3-yl)-4-hydroxyquinoline-8-carboxamide] |  |  | CRBN Binding, probe displacement at single concentration (at 100 μM): 50% at 100 μM; probe displacement (at 100 μM): 50%
Nc1ccc(NC(=O)NC2CCC(=O)NC2=O)nc1 (stereo not drawn) [Compound 27, 1-(5-aminopyridin-2-yl)-3-(2,6-dioxopiperidin-3-yl)urea] |  |  | CRBN Binding, probe displacement at single concentration (at 100 μM): 50% at 100 μM
O=C1CCC(NC(=O)Nc2ccc(O)cn2)C(=O)N1 (stereo not drawn) [Compound 28, 1-(2,6-Dioxopiperidin-3-yl)-3-(5-hydroxypyridin-2-yl)urea] |  |  | CRBN Binding IC50 [2]: inactive
O=C1CCC(NC(=O)Nc2cccc3c2NCC3)C(=O)N1 (stereo not drawn) [Compound 29, 1-(2,6-Dioxopiperidin-3-yl)-3-(indolin-7-yl)urea] |  |  | CRBN Binding IC50 [2]: inactive
O=C1CCC(NC(=O)c2cccc3c2NCC3)C(=O)N1 (stereo not drawn) [Compound 30, N-(2,6-dioxopiperidin-3-yl)indoline-7-carboxamide] |  |  | CRBN Binding, probe displacement at single concentration (at 100 μM): 50% at 100 μM
O=C1CCC(NC(=O)c2cccc(OCc3ccc(CN4CCOCC4)cc3)n2)C(=O)N1 (stereo not drawn) [Compound 32, N-(2,6-dioxopiperidin-3-yl)-6-((4-(morpholinomethyl)benzyl)oxy)picolinamide] | 11.4 µM | 40 µM | 

Second part, led by results:

Ki (Table 1) | IC50 [1] | Structure (SMILES) | also measured
15.7 µM | 55 µM | O=C1CCC(NC(=O)c2cccc(OCc3ccccc3)n2)C(=O)N1 (stereo not drawn) [Compound 1, 6-(benzyloxy)-N-(2,6-dioxopiperidin-3-yl)picolinamide] | 
4 µM | 14 µM | O=C1CCC(NC(=O)c2cccc3cccnc23)C(=O)N1 (stereo not drawn) [Compound 8, N-(2,6-dioxopiperidin-3-yl)quinoline-8-carboxamide] | 
0.8 µM |  | Nc1ccc(C(=O)NC2CCC(=O)NC2=O)c2ncccc12 (stereo not drawn) [Compound 23, 5-Amino-N-(2,6-dioxopiperidin-3-yl) quinoline-8-carboxamide] | IC50 [3]: 2.9 µM
2.2 µM |  | Nc1ccnc2c(C(=O)NC3CCC(=O)NC3=O)cccc12 (stereo not drawn) [Compound 24, 4-Amino-N-(2,6-dioxopiperidin-3-yl)quinoline-8-carboxamide] | IC50 [3]: 7.7 µM
5 µM | 17.5 µM | Nc1cnc2c(C(=O)NC3CCC(=O)NC3=O)cccc2c1 (stereo not drawn) [Compound 25, 3-Amino-N-(2,6-dioxopiperidin-3-yl)quinoline-8-carboxamide] | 
10.7 µM | 37.6 µM | O=C1CCC(NC(=O)c2cccc3nc[nH]c23)C(=O)N1 (stereo not drawn) [Compound 31, N-(2,6-dioxopiperidin-3-yl)-1H-benzo[d]imidazole-4-carboxamide] | 
